Source: US20090123389A1, “Methods for modulating Th17 cell development in the treatment and prevention of cellulite” (priority 2007, published 2009)
“And” between values parts separate entries of the source, which are not always exact repeats. Equal entries are not always repeated.

Legend:
CD4+ CD25− T cells = assay: Foxp3 (Treg marker) expression in TGFβ/IL-6 treated T cells; format: cell-based, mouse
Experimental: Low doses of halofuginone (HF) were tested to determine the ability of HF to enhance Treg differentiation, while suppressing Th17 differentiation. Naïve CD4+ T cells (CD4+ CD25−) were isolated from the spleen and peripheral lymph nodes of C57B/6 mice. T cells were then activated using anti-CD3 (0.3 μg/ml) and anti-CD28 (0.5 μg/ml) antibodies either in media alone (row 1, 4), TGFβ alone (3 ng/ml—row 2, 5) or TGFβ (3 ng/ml) plus IL-6 (30 ng/ml) (row 3, 6). […] T cells were cultured for 3 days and CD25 and Foxp3 expression (Treg marker genes) was determine by FACS staining and flow cytometric analyses. Simultaneously, T cells were harvested and re-stimulated for 4 hours using phorbol myristic acetate (PMA; 10 nM), Ionomycin (1 μM) and cytokine secretion was prevented using brefeldin A (20 μg/ml). Following stimulation, the production of IL-17 and IFNγ were determined by intracellular staining and analyzed via flow cytometry. […]
FACS analyses and sorting: All cell surface staining was performed in FACS buffer (PBS/2% FCS/0.1% NaN3) and antibodies were incubated with cells on ice for 20-30 minutes. […] All FACS data was acquired on a FACSCalibur flow cytometer (BD Pharmingen) and analyzed using FlowJo software (Treestar, Inc., Ashland, Oreg.). […]

TGFβ signaling = TGFβ signaling in T and B cells (Smad phosphorylation, lymphocyte responses to TGFβ); format: cell-based, mouse; details: HF 10 nM (2.5-40 nM for Smad); SB-431542 10 μM
Experimental: DMSO, 10 nM HF, 10 nM MAZ1310 or 10 μM SB-431542 was added as indicated at the time of activation and intracellular cytokine staining was performed on expanded T cells on day 5 as in FIG. 14B
FIG. 15B is an illustration depicting the analysis of CD8^+ T cells that were activated in the presence or absence of TGFβ and cultured with DMSO, 10 nM HF, 10 nM MAZ1310 or 10 μM SB-431542. Expanded cells were restimulated on day 5 and intracellular staining was performed as above.
FIG. 15C is an illustration depicting the analysis of CFSE-labeled B cells that were activated by LPS stimulation in the presence or absence of TGFβ plus DMSO, 10 nM HF, 10 nM MAZ1310 or 10 μM SB-431542. Intracellular IL-6 production in B cells re-stimulated with PMA plus ionomycin, or cell-surface IgA expression was determined 4 days after activation by FACS analyses.
T cells were then activated in the presence or absence of 3 ng/ml TGFβ. Whole cell extracts were prepared after 1 hour of stimulation and western blot analyses were performed using the indicated antibodies.
Western blotting: Whole cell lysates were generated from T cells activated for the indicated times. For STAT3 and Smad2/3 western blots cells were harvested, washed in PBS and lysed in 50 mM Tris, pH 7.4, 0.1% SDS, 1% Triton-×100, 140 mM NaCl, 1 mM EDTA, 1 mM EGTA supplemented with protease inhibitors tablets (Roche—Germany), 1 mM NaF and 1 mM Na3VO4. […]

mTOR = assay: Signaling downstream of mTOR in fibroblasts; format: cell-based
[1] = test system: human peripheral blood T cells; details: cited from earlier work
fibrosis = details: in vitro; cited from earlier work
dermal ECM deposition = details: cited from earlier work
TSK mouse = details: 1 μg HF/mouse IP daily; cited from earlier work
[2] = human, in vivo; cited from earlier work
[3] = cited from earlier work

O=C(CC1NCCCC1O)Cn1cnc2cc(Br)c(Cl)cc2c1=O (racemic) [HF, 7-bromo-6-chloro-3-[3-(3-hydroxy-2-piperidinyl)-2-oxopropyl]-4(3H)-quinazolinone]
Foxp3 expression of T cells differentiated in the presence of HF (CD4+ CD25− T cells; 10 nM HF, TGFβ plus IL-6, day 3): enhanced Foxp3 expression | HF concentration that increased expression of the Treg marker FoxP3 (CD4+ CD25− T cells; TGFβ/IL-6 treated T-cells, 3 days): 2.5 to 10 nM and 2.2 to 10 nM | TGFβ-induced Smad phosphorylation and other lymphocyte responses to TGFβ (TGFβ signaling): inhibited neither | signaling downstream of mTOR in fibroblasts (mTOR): did not inhibit | NFkB activation and T-cell secretion of cytokines ([1]; 80 nM HF, crude preparation of primary T-cells): broadly suppress | IC50 ([1]; Lieba studies, read-out: 50% inhibition of cytokine secretion, NF-kB activation, p38 phosphorylation): 20 to 40 nM | levels of cytokine secretion, NF-kB activation and p38 phosphorylation ([1]; anti-CD3 activated T cells): generally reduced levels | concentrations at which HF acts as an inhibitor of fibrosis (fibrosis): 1 to 200 nM | excess dermal ECM deposition (dermal ECM deposition; intra-peritoneally, added to food, or applied locally): reduces excess dermal ECM deposition | wound healing (dermal ECM deposition; topical HF, animal models): facilitate wound healing | normal skin thickness (TSK mouse): did not reduce | skin thickness of TSK mouse (TSK mouse): reduced skin thickness of a TSK mouse to that of a normal mouse | toxic effects in TSK model (TSK mouse): no toxic effects | HF in serum during topical treatment [2]: undetectable in serum | peak plasma concentration ([3]; oral 3.5 mg/day): 3 ng/ml and ~8 nM | dose at which dose limiting toxicity (nausea and vomiting) occurred ([3]; oral): 3.5 mg/day | recommended tolerated dose for chronic treatment ([3]; oral): 0.5 mg/day
